Patent publication US12502362B2, “Inhibitors of nucleotidyltransferase superfamily enzymes as antibiotics” (priority 2017, dated 2025)
Values after ≈ are worked out from the molar mass of the structure shown.

How the values were obtained:
[1] = test system: Coagulase negative Staphylococcus; assay: MIC80 on coagulase negative Staphylococcus; type: cell-based
Experimental: (§1) To further characterize the compounds, the minimal inhibitory concentration (MIC80) were determined for selected compounds. MIC80 is defined as the compound concentration at which ≥80% bacterial growth is inhibited compare to untreated controls. Meanwhile, for the selected compounds, cytotoxicity assays (CC50) were performed on a HepG2-derived hepatoblastoma cell line (HEPDES19). […] For the MIC80 measurements, a 1.5 fold dilution series of the compounds was prepared in Mueller-Hinton II broth. […] For CC50 evaluation, soluble tetrazolium dye (MTS) was used to measure mitochondrial toxicity in a human hepatoblastoma cell line (18). The bacteria (E. coli, S. saprophyticus and A. baumannii) used in MIC80 measurements were the same as that in the primary screening, but for Staphylococcus, S. aureus is used primarily because it is a common pathogen in Staphylococcaeae family, while S. saprophyticus is part of the normal human flora. S. aureus (ATCC 29213) is methicillin-sensitive Staphylococcus aureus (MSSA) strain and it was used as a model strain to measure the MIC80.
(§2) It was also tested whether compounds #63 and #285 can inhibit other coagulase-negative Staphylococcus (CNS) including S. epidermidis, S. hominis, etc. […] .

[2] = Cytotoxicity assay (CC50), MTS; type: cell-based, human; conditions: human, HepG2-derived hepatoblastoma cell line (HEPDES19), HEPDES19 cells
Experimental: (§3) To further characterize the compounds, the minimal inhibitory concentration (MIC80) were determined for selected compounds. MIC80 is defined as the compound concentration at which ≥80% bacterial growth is inhibited compare to untreated controls. Meanwhile, for the selected compounds, cytotoxicity assays (CC50) were performed on a HepG2-derived hepatoblastoma cell line (HEPDES19). […] For CC50 evaluation, soluble tetrazolium dye (MTS) was used to measure mitochondrial toxicity in a human hepatoblastoma cell line (18). The bacteria (E. coli, S. saprophyticus and A. baumannii) used in MIC80 measurements were the same as that in the primary screening, but for Staphylococcus, S. aureus is used primarily because it is a common pathogen in Staphylococcaeae family, while S. saprophyticus is part of the normal human flora.

[3] = test system: HepG2-derived hepatoblastoma cell line (HEPDES19); assay: Cytotoxicity assay (CC50), MTS; type: cell-based, human; conditions: HEPDES19 cells
Experimental: as §3

S. aureus (ATCC 29213) = assay: MIC80 on S. aureus; type: cell-based, Staphylococcus aureus; conditions: Staphylococcus aureus, ATCC 29213 / MSSA, read-out: MIC80 S. aureus, S. aureus ATCC 29213 (MSSA); ≥80% growth inhibition
Experimental: as §3

[4] = test system: Acinetobacter baumannii (Abl, from a patient); assay: microbe, parasite or virus in culture; type: cell-based; conditions: Acinetobacter baumannii, read-out: MIC80 A. baumannii, A. baumannii Ab1, MDR patient isolate
Experimental: as §3

E. coli (ATCC 35218) = assay: microbe, parasite or virus in culture; type: cell-based; conditions: for MIC80: Escherichia coli, ATCC35218, read-out: MIC80 E. coli, E. coli ATCC 35218
Experimental: as §3

Staphylococcus hominis = assay: MIC80 on S. hominis; type: cell-based
Experimental: as §1, §2

[5] = test system: Staphylococcus saprophyticus (ATCC BAA-750); assay: MIC80 on S. saprophyticus; type: cell-based; conditions: Staphylococcus saprophyticus, ATCCBAA750; S. saprophyticus ATCC BAA-750; read-out: MIC80 S. sapro
Experimental: as §3

[6] = test system: S. aureus and/or S. saprophyticus; assay: MIC80 on S. aureus and/or S. saprophyticus; type: cell-based; conditions: read-out: MIC80 against S. aureus and/or S. saprophyticus
Experimental: as §1

[7] = test system: S. aureus ATCC strains and methicillin-resistant Staphylococcus aureus (MRSA); assay: MIC80 on S. aureus ATCC strains and MRSA; type: cell-based
Experimental: as §3

[8] = test system: Staphylococcus epidermidis; assay: MIC80 on S. epidermidis; type: cell-based
Experimental: as §1, §2

Citrobacter koseri = assay: microbe, parasite or virus in culture; type: cell-based; conditions: Citrobacter koseri
Experimental: as §3
(§4) All these MDR-bacteria are at least resistant to two classes of the antibiotics among five groups and/or specific antibiotics including quinolones/fluorquinolones, carbapenems, cephalosporins, aminoglycosides and piperacillin-tazobactam.

Klebsiella pneumoniae = assay: microbe, parasite or virus in culture; type: cell-based; conditions: Klebsiella pneumoniae
Experimental: as §3, §4

Morganella morganii = assay: microbe, parasite or virus in culture; type: cell-based; conditions: Morganella morganii
Experimental: as §3, §4

MDR Enterobacteriaceae = assay: microbe, parasite or virus in culture; type: cell-based; conditions: Escherichia coli, read-out: MIC80 on MDR Enterobacteriaceae
Experimental: as §3, §4

[9] = test system: Enterobacter cloacae complex; assay: microbe, parasite or virus in culture; type: cell-based; conditions: Enterobacter cloacae
Experimental: as §3, §4

MDR E. coli = assay: microbe, parasite or virus in culture; type: cell-based; conditions: Escherichia coli
Experimental: as §3, §4

## O=C(Oc1cccccc1=O)c1ccc(Cl)cc1 [Compound 63]
[1]; CNS1 (Coagulase negative Staphylococcus)
  MIC80: 13.2 µM (≈ 3.44 µg/mL)
[1]; CNS2 (Coagulase negative Staphylococcus)
  MIC80: 5.9 µM (≈ 1.54 µg/mL)
[2]
  CC50: > 50 µM
[3]
  CC50: ≥ 100 µM
S. aureus (ATCC 29213)
  MIC80: 16.5 µM (≈ 4.3 µg/mL)
[4]
  MIC80: 83.4 µM (≈ 21.7 µg/mL)
E. coli (ATCC 35218)
  MIC80: 111 µM (≈ 29 µg/mL)
Staphylococcus hominis; Sh1 (Staphylococcus hominis)
  MIC80: 8.8 µM (≈ 2.29 µg/mL)
Staphylococcus hominis; Sh2 (Staphylococcus hominis)
  MIC80: 13.2 µM (≈ 3.44 µg/mL)
Staphylococcus hominis; Sh3 (Staphylococcus hominis)
  MIC80: 8.8 µM (≈ 2.29 µg/mL)
[5]
  MIC80: 9.2 µM (≈ 2.4 µg/mL)
[6]
  MIC80: < 20 µM
[7]; ATCC 25923 / MRSA, S. aureus ATCC 25923
  MIC80: 8.8 µM (≈ 2.29 µg/mL)
[7]; ATCC 29213 / MRSA, S. aureus ATCC 29213 (Table 3)
  MIC80: 8.8 µM (≈ 2.29 µg/mL)
[7]; BAA-976 / MRSA, S. aureus ATCC BAA 976
  MIC80: 13.2 µM (≈ 3.44 µg/mL)
[7]; BAA-977 / MRSA, S. aureus ATCC BAA 977
  MIC80: 8.8 µM (≈ 2.29 µg/mL)
[7]; MRSA, Sa1 (MRSA)
  MIC80: 8.8 µM (≈ 2.29 µg/mL)
[7]; MRSA, Sa2 (MRSA)
  MIC80: 8.8 µM (≈ 2.29 µg/mL)
[7]; MRSA, Sa3 (MRSA)
  MIC80: 8.8 µM (≈ 2.29 µg/mL)
[7]; MRSA, Sa5 (MRSA)
  MIC80: 8.8 µM (≈ 2.29 µg/mL)
[7]; MRSA, Sa6 (MRSA)
  MIC80: 8.8 µM (≈ 2.29 µg/mL)
[7]; MRSA, Sa7 (MRSA)
  MIC80: 8.8 µM (≈ 2.29 µg/mL)
[7]; MRSA, Sa8 (MRSA)
  MIC80: 8.8 µM (≈ 2.29 µg/mL)
[7]; MRSA, Sa9 (MRSA)
  MIC80: 8.8 µM (≈ 2.29 µg/mL)
[7]; MRSA, Sa10 (MRSA)
  MIC80: 8.8 µM (≈ 2.29 µg/mL)
[7]; MRSA, Sa11 (MRSA)
  MIC80: 8.8 µM (≈ 2.29 µg/mL)
[7]; MRSA, Sa12 (MRSA)
  MIC80: 8.8 µM (≈ 2.29 µg/mL)
[7]; MRSA, Sa14 (MRSA)
  MIC80: 8.8 µM (≈ 2.29 µg/mL)
[7]; MRSA, Sa15 (MRSA)
  MIC80: 8.8 µM (≈ 2.29 µg/mL)
[7]; MRSA, Sa16 (MRSA)
  MIC80: 8.8 µM (≈ 2.29 µg/mL)
[7]; MRSA, Sa17 (MRSA)
  MIC80: 8.8 µM (≈ 2.29 µg/mL)
[7]; MRSA, Sa18 (MRSA)
  MIC80: 8.8 µM (≈ 2.29 µg/mL)
[7]; MRSA, Sa19 (MRSA)
  MIC80: 8.8 µM (≈ 2.29 µg/mL)
[7]; MRSA, Sa20 (MRSA)
  MIC80: 8.8 µM (≈ 2.29 µg/mL)
[7]; MRSA, Sa21 (MRSA)
  MIC80: 8.8 µM (≈ 2.29 µg/mL)
[7]; MRSA, Sa22 (MRSA)
  MIC80: 8.8 µM (≈ 2.29 µg/mL)
[7]; MRSA, Sa23 (MRSA)
  MIC80: 8.8 µM (≈ 2.29 µg/mL)
[8]; Se1 (Staphylococcus epidermidis)
  MIC80: 8.8 µM (≈ 2.29 µg/mL)
[8]; Se2 (Staphylococcus epidermidis)
  MIC80: 8.8 µM (≈ 2.29 µg/mL)
[8]; Se3 (Staphylococcus epidermidis)
  MIC80: 8.8 µM (≈ 2.29 µg/mL)
[8]; Se4 (Staphylococcus epidermidis)
  MIC80: 8.8 µM (≈ 2.29 µg/mL)
[8]; Se5 (Staphylococcus epidermidis)
  MIC80: 8.8 µM (≈ 2.29 µg/mL)

## Cc1ccc(C(=O)Sc2cccccc2=O)cc1 [Compound 284]
[2]
  CC50: > 50 µM
S. aureus (ATCC 29213)
  MIC80: 15 µM (≈ 3.84 µg/mL)
[4]
  MIC80: 55.6 µM (≈ 14.3 µg/mL)
E. coli (ATCC 35218); E. coli ATCC 35218
  MIC80 E. coli: 24.1 µM (≈ 6.18 µg/mL)
E. coli (ATCC 35218)
  MIC80: < 30 µM
[5]
  MIC80: 44.4 µM (≈ 11.4 µg/mL)
[6]
  MIC80: < 20 µM
Citrobacter koseri
  MIC80: 8.8 µM (≈ 2.26 µg/mL)
Klebsiella pneumoniae; Kp1 (Klebsiella pneumonia)
  MIC80: 5.9 µM (≈ 1.51 µg/mL)
Klebsiella pneumoniae; Kp6 (Klebsiella pneumonia)
  MIC80: 29.6 µM (≈ 7.59 µg/mL)
Morganella morganii
  MIC80: 19.8 µM (≈ 5.08 µg/mL)
MDR Enterobacteriaceae
  MIC80: ≤ 20 µM
[9]
  MIC80: 8.8 µM (≈ 2.26 µg/mL)
MDR E. coli; Ec1 (MDR E. coli)
  MIC80: 5.9 µM (≈ 1.51 µg/mL)
MDR E. coli; Ec2 (MDR E. coli)
  MIC80: 3.9 µM (≈ 1 µg/mL)
MDR E. coli; Ec3 (MDR E. coli)
  MIC80: 5.9 µM (≈ 1.51 µg/mL)
MDR E. coli; Ec4 (MDR E. coli)
  MIC80: 8.8 µM (≈ 2.26 µg/mL)
MDR E. coli; Ec5 (MDR E. coli)
  MIC80: 29.6 µM (≈ 7.59 µg/mL)
